Test results published in patent US20260125346A1, “Isoquinolinone Derivatives and 4H-Quinolizinone Derivatives and Pharmaceutical Compositions Thereof for the Treatment of Disease” (BeOne Medicines I GmbH, priority 2023, published 2026).

What was measured:
[1] = target: PI3Kα (p110/p85) kinase (wild type, "WT") (Homo sapiens, UniProt P42336); experiment: PI3Kα (p110/p85) kinase ADP-Glo Assay; type: biochemical; settings: 25 uM ATP
In short: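 IC50 values come from a four-parameter logistic fit of ADP-Glo chemiluminescence, reflecting ADP formed. Enzyme, lipid substrate and […] compound were preincubated 30 min at room temperature, then 25 µM ATP was added for a 120 min reaction in 50 mM HEPES pH7.5, 3 mM MgCl2.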

[2] = target: PI3Kα (p110[H1047R]/p85) kinase (Homo sapiens, UniProt P42336, H1047R); experiment: PI3Kα (p110[H1047R]/p85) kinase ADP-Glo Assay; type: biochemical; settings: 25 uM ATP; for selectivity: WT/H1047R: ADP-Glo Assay IC50 ratio
Sequence of PI3Kα (p110[H1047R]/p85) kinase (P42336 whole entry H1047R): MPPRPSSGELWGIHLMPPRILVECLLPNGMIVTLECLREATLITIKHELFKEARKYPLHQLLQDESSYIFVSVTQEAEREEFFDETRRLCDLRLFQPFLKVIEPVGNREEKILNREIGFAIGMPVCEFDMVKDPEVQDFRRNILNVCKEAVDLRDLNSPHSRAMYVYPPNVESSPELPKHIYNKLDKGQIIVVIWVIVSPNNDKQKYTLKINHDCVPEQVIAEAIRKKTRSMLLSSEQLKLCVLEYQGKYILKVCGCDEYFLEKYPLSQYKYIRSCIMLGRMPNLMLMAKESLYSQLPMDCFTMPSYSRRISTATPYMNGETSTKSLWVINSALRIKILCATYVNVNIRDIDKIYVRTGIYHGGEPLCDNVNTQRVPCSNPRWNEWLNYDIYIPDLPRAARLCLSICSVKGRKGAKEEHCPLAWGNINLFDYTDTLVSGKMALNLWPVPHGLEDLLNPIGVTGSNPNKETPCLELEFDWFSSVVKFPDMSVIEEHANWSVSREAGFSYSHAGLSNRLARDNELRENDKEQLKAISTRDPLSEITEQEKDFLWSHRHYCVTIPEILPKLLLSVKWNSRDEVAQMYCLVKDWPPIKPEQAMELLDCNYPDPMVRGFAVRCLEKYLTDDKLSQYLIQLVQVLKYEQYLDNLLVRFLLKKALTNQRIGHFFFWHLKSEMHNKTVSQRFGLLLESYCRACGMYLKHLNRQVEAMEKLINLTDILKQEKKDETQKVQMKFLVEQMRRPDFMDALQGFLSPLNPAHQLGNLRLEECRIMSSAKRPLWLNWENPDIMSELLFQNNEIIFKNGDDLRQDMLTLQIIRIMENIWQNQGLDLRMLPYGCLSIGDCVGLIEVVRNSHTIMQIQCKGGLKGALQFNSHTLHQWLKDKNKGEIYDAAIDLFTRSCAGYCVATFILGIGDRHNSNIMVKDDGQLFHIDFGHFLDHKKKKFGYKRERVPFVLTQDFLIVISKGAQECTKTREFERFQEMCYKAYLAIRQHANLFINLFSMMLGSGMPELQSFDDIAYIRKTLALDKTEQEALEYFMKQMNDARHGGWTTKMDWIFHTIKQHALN
Sequence of PI3Kα (p110[H1047R]/p85) kinase (P27986 whole entry partner): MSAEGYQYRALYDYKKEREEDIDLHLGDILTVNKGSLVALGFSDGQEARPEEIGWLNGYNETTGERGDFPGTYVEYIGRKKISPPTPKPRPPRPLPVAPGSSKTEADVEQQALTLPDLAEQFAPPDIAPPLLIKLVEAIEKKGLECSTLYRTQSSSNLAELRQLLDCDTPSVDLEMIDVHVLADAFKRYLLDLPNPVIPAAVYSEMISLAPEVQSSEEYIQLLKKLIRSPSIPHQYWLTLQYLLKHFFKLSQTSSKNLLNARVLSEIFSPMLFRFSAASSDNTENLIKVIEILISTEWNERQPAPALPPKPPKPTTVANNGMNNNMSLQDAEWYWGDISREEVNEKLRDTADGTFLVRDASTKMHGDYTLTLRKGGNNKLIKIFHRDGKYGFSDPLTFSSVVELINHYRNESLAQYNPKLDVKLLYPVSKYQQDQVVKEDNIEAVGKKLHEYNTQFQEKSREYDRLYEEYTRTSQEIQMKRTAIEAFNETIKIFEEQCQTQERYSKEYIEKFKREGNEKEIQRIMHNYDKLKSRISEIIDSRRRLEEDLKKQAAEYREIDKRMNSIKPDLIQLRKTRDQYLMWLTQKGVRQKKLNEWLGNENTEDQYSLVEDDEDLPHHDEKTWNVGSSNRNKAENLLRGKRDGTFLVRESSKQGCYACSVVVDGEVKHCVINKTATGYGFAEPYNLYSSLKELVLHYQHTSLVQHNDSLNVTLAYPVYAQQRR
In short: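 ADP-Glo luminescence tracked ADP formed by the mutant p110α(H1047R)/p85 complex during a 120 min room-temperature reaction with 25 µM ATP and 5.35 µg/ml PI(4,5)P2:PS lipid substrate, started after 30 min enzyme–compound–substrate pre-incubation (compound […], 50 mM HEPES pH 7.5). IC50 via four-parameter logistic equation.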

WT cell line SK-BR-3 = experiment: Phospho-AKT (Ser473) Inhibition Assay (HTRF), SK-BR-3; type: cell-based; settings: Homo sapiens; SK-BR-3, 1 hour treatment; read-out: p-AKT Inhibition assay (S473) IC50 SK-BR-3
In short: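 SK-BR-3 (PI3Kα WT) cells seeded overnight in MEM with insulin, then treated 1 h with 11-point 1:3 dilutions (10 μM to 0.1 nM, 0.1% DMSO). Lysates read for phospho-AKT Ser473 by HTRF after 4 h antibody incubation at room temperature. IC50 from 4-parameter fit, % inhibition normalized to DMSO (max) and 10 μM GDC0077 (min).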

Sequence of PI3Kα (p110/p85) kinase (wild type, "WT") (P42336 whole entry): as the sequence (P42336 whole entry H1047R) above, with R1047H counted along it
Sequence of PI3Kα (p110/p85) kinase (wild type, "WT") (P27986 whole entry partner): as the sequence (P27986 whole entry partner) above

Structure (SMILES) | IC50 [1] [nM] | IC50 [2] [nM] | selectivity: WT/H1047R [2] | IC50 (WT cell line SK-BR-3) [nM]
Cc1cc(C(C)Nc2ccccc2C(=O)O)c2cc(-c3ccc4nc(C)sc4c3)n(C)c(=O)c2c1 (stereo not drawn) [Example 18, 2-((1-(2,7-dimethyl-3-(2-methylbenzo[d]thiazol-6-yl)-1-oxo-1,2-dihydroisoquinolin-5-yl)ethyl)amino)benzoic acid] | 4370 | 272 | 16.1 | 2320
Cc1cc(C(C)Nc2ccccc2C(=O)O)c2cc(-c3ccc4nn(C)cc4c3)n(C)c(=O)c2c1 (stereo not drawn) [Example 19, 2-((1-(2,7-dimethyl-3-(2-methyl-2H-indazol-5-yl)-1-oxo-1,2-dihydroisoquinolin-5-yl)ethyl)amino)benzoic acid] | 6560 | 311 | 21.1 | 2290
CC(Nc1ccccc1C(=O)O)c1cccc2c(=O)n(C)c(-c3ccccc3)cc12 (stereo not drawn) [Example 20, 2-((1-(2-methyl-1-oxo-3-phenyl-1,2-dihydroisoquinolin-5-yl)ethyl)amino)benzoic acid] | 10100 | 93 | 108.4 | > 10000
CC(Nc1ccccc1C(=O)O)c1cccc2c(=O)n(C)c(C#Cc3ccccc3)cc12 (stereo not drawn) [Example 21, 2-((1-(2-methyl-1-oxo-3-(phenylethynyl)-1,2-dihydroisoquinolin-5-yl)ethyl)amino)benzoic acid] | 1340 | 121 | 11.1 | 5880
Cc1cc(C(C)Nc2ccccc2C(=O)O)c2cc(-c3cccc4cn(C)nc34)n(C)c(=O)c2c1 (stereo not drawn) [Example 22, 2-((1-(2,7-dimethyl-3-(2-methyl-2H-indazol-7-yl)-1-oxo-1,2-dihydroisoquinolin-5-yl)ethyl)amino)benzoic acid] | 52300 | 1730 | 30.3 | > 10000
Cc1cc(C(C)Nc2ccccc2C(=O)O)c2cc(-c3ccc(-c4cnn(C)c4)cc3)n(C)c(=O)c2c1 (stereo not drawn) [Example 23, 2-((1-(2,7-dimethyl-3-(4-(1-methyl-1H-pyrazol-4-yl)phenyl)-1-oxo-1,2-dihydroisoquinolin-5-yl)ethyl)amino)benzoic acid] | 2030 | 223 | 9.1 | 1700
Cc1cc(C(C)Nc2ccccc2C(=O)O)c2cc(NC(=O)c3ccccc3)n(C)c(=O)c2c1 (stereo not drawn) [Example 24, 2-((1-(3-benzamido-2,7-dimethyl-1-oxo-1,2-dihydroisoquinolin-5-yl)ethyl)amino)benzoic acid] | 39200 | 1030 | 38.2 | > 10000
CC(Nc1ccccc1C(=O)O)c1cccn2c(=O)cc(-c3ccccc3)cc12 (stereo not drawn) [Example 25, 2-((1-(4-oxo-2-phenyl-4H-quinolizin-9-yl)ethyl)amino)benzoic acid] | 23800 | 229 | 104.0 | > 10000
Cc1cc([C@@H](C)Nc2ccccc2C(=O)O)c2cc(-c3ccccc3)n(C)c(=O)c2c1 [Example 30, (R)-2-((1-(2,7-dimethyl-1-oxo-3-phenyl-1,2-dihydroisoquinolin-5-yl)ethyl)amino)benzoic acid] | 2500 | 104 | 24.1 | 2500
Cc1cc([C@H](C)Nc2ccccc2C(=O)O)c2cc(-c3ccccc3)n(C)c(=O)c2c1 [Example 31, (S)-2-((1-(2,7-dimethyl-1-oxo-3-phenyl-1,2-dihydroisoquinolin-5-yl)ethyl)amino)benzoic acid] | > 100000 | > 100000 |  | > 10000
Cc1cc(C(C)Nc2ccccc2C(=O)O)c2cc(-c3ccccc3C#N)n(C)c(=O)c2c1 (stereo not drawn) [Example 32, 2-((1-(3-(2-cyanophenyl)-2,7-dimethyl-1-oxo-1,2-dihydroisoquinolin-5-yl)ethyl)amino)benzoic acid] | 61100 | 332 | 184.0 | > 10000
Cc1cc(C(C)Nc2cccnc2C(=O)O)c2cc(-c3ccc(F)cc3)n(C)c(=O)c2c1 (stereo not drawn) [Example 33, 3-((1-(3-(4-fluorophenyl)-2,7-dimethyl-1-oxo-1,2-dihydroisoquinolin-5-yl)ethyl)amino)picolinic acid] | 55100 | 1050 | 52.6 | 9920
Cc1cc([C@@H](C)Nc2ccccc2C(=O)O)c2cc(-c3ccc(F)cc3)n(C)c(=O)c2c1 [Example 34, (R)-2-((1-(3-(4-fluorophenyl)-2,7-dimethyl-1-oxo-1,2-dihydroisoquinolin-5-yl)ethyl)amino)benzoic acid] | 4180 | 107 | 39.0 | > 10000
Cc1cc([C@H](C)Nc2ccccc2C(=O)O)c2cc(-c3ccc(F)cc3)n(C)c(=O)c2c1 [Example 35, (S)-2-((1-(3-(4-fluorophenyl)-2,7-dimethyl-1-oxo-1,2-dihydroisoquinolin-5-yl)ethyl)amino)benzoic acid] | > 100000 | > 100000 |  | > 10000
Cc1cc(C(C)Nc2ccccc2C(=O)O)c2cc(-c3ccccn3)n(C)c(=O)c2c1 (stereo not drawn) [Example 36, 2-((1-(2,7-dimethyl-1-oxo-3-(pyridin-2-yl)-1,2-dihydroisoquinolin-5-yl)ethyl)amino)benzoic acid] | 50800 | 603 | 84.2 | > 10000
Cc1cc(C(C)Nc2ccccc2C(=O)O)c2cc(-c3cccnc3)n(C)c(=O)c2c1 (stereo not drawn) [Example 37, 2-((1-(2,7-dimethyl-1-oxo-3-(pyridin-3-yl)-1,2-dihydroisoquinolin-5-yl)ethyl)amino)benzoic acid] | 12500 | 309 | 40.6 | > 10000
Cc1cc(C(C)Nc2ccccc2C(=O)O)c2cc(-c3cncc(F)c3)n(C)c(=O)c2c1 (stereo not drawn) [Example 38, 2-((1-(3-(5-fluoropyridin-3-yl)-2,7-dimethyl-1-oxo-1,2-dihydroisoquinolin-5-yl)ethyl)amino)benzoic acid] | 9810 | 267 | 36.7 | > 10000
Cc1cc(C(C)Nc2ccccc2C(=O)O)c2cc(-c3ccc4nn(C)cc4n3)n(C)c(=O)c2c1 (stereo not drawn) [Example 39, 2-((1-(2,7-dimethyl-3-(2-methyl-2H-pyrazolo[4,3-b]pyridin-5-yl)-1-oxo-1,2-dihydroisoquinolin-5-yl)ethyl)amino)benzoic acid] | 10600 | 922 | 11.5 | 6170
Cc1cc([C@@H](C)Nc2ccccc2C(=O)O)c2cc(-c3ccc(-c4cnn(C)c4)cc3)n(C)c(=O)c2c1 [Example 40, (R)-2-((1-(2,7-dimethyl-3-(4-(1-methyl-1H-pyrazol-4-yl)phenyl)-1-oxo-1,2-dihydroisoquinolin-5-yl)ethyl)amino)benzoic acid] | 5120 | 55 | 93.1 | 814
Cc1cc(C(C)Nc2ccccc2C(=O)O)c2cc(C#Cc3ccccc3)n(C)c(=O)c2c1 (stereo not drawn) [Example 43, 2-((1-(2,7-dimethyl-1-oxo-3-(phenylethynyl)-1,2-dihydroisoquinolin-5-yl)ethyl)amino)benzoic acid] | 2360 | 235 | 10.1 | 1640
